The text below walks through data of patent publication US20070275091A1, “Compositions And Methods For Improved Mucus Function” (priority 2004, published 2007).

“Also recorded” adds a separate entry of the source.

Data set [1] deals with frog palate mucociliary clearance. The data set can be described thus: Frog palate mucociliary transport, agent applied topically. Details: species or system Rana catesbiana. As to the method:
(§1) The displacement of a 1-5 μL of endogenous frog mucus sample is timed as the trailing edge moves across a predetermined segment. MTV is calculated by dividing the distance traveled by the time elapsed, based on at least five measurements of the time required for the mucus sample to travel the defined distance (3).
In FIG. 4A, the effect of a mucomodulating agent (CaCl2) on mucociliary transport time is shown compared to Frog Ringers (FR) solution. Both solutions (FR and CaCl2) were applied topically to the palate in a volume of 5 μL. Thirty seconds were allowed for dispersion of the agent on the palate, followed by the measurement of mucociliary transport time. A droplet of mucus from the palate was placed on palate toward the mouth opening. Ciliary action transported the droplet down the palate. The measurement process (timing the movement of the droplet down the palate over a set distance of 4 mm as observed through a stereomicroscope with a reticulated eyepiece) was repeated five times and averaged to give a mean transport time for each solution.
As described above, mucomodulator solutions were applied topically to the palate in a volume of 5 μl. After 30 seconds to allow dispersion of the agent on the palate, measurements of mucociliary transport time were taken. None of the agents tested on the frog palate had any significant effect on mucociliary clearance until the highest delivered concentrations. Variations at low concentrations were due to variations in baseline frog palate mucociliary activity.

For data set [2], the system named is mucus from the frog palate. Conditions: 5 μL of 0.1 M solution applied topically.
Excerpt: From a bullfrog, Rana catesbiana, the upper portion of the head is removed modifying the procedures described in previous works. This is done by pithing the frog after lowering the body temperature to abolish pain sensation, and then cutting with scissors through from the junction of the posterior pharynx and esophagus out to the skin of the back. The palate is checked for macroscopic lesions, such as ulcers, or evidence of inflammation. The palate is then placed inside the frog chamber, a wooden box with a glass top and fitted glass front and manipulated through glove openings, and viewed under a dissecting stereomicroscope provided with a reticulated eyepiece. Humidity inside the box is maintained at 100% using a Pari nebulizer; the box is maintained at room temperature (22° to 24° C.). Before carrying out any measurement, the palate is allowed to stabilize inside the box for 15 minutes.
Samples of mucus and tissue are placed in 2.5% glutaraldehyde solution immediately after collection and stored at 4° C. until processing. Briefly, the samples are post-fixed in 1% osmium tetroxide in Millonig's buffer at room temperature for one hour. They are then washed briefly in a series of ethanol (50-100%), ten minutes at each step, followed by two additional periods of absolute ethanol (10 minutes each). […]
Data set [3] in a line: Filancemeter spinnability of mucus simulant. Type of data set: physicochemical. Conditions: model studies using vegetable polysaccharides. As to the method: (§2) Mucus simulants (MS) were exposed to airflow in a simulated cough machine (SCM). The MS ranged from non-viscous, non-elastic substances (water—control) to MS of varying degrees of viscosity and elasticity. Mucin crosslinking was increased by adding sodium tetraborate (mucomodulator B) to viscous solutions of locust bean gum (Sigma). Mucociliary clearance of the MS was assessed on the frog palate (FIG. 5A), elasticity in the Filancemeter (FIG. 6A) and the aerosol pattern in a “bulls-eye” target (FIG. 6B). The sample loaded was weighed before and after each cough maneuver to achieve a measure of expectoration (FIG. 5B).

Data set [4] concerns tracheal mucociliary clearance. The data set can be described thus: Tracheal mucus velocity in anesthetized dogs. Type of data set: in vivo. Particulars: for TMV: 7 mL over 20 min, jet nebulizer; for thread formation capability (a measure of elasticity) of the tracheal mucus: after aerosol exposure, not in sham or saline. As to the method: The mucomodulator aerosols were delivered to the intubated, spontaneously breathing dogs by jet nebulizer aerosol (7 mL over 20 min). Three aerosol concentrations were delivered: Low=0.001M; Med 0.01M; High=0.1M.
The following was assessed: cardio-respiratory pattern, tracheal mucus clearance, airway patency, and mucus viscoelasticity changes.

The subject of data set [5] is frog palate epithelial model. As to the kind of experiment: Mucociliary clearance of borate-treated mucus simulant on frog palate. Details: species or system Rana catesbiana. Particulars: control native frog palate mucus 24 mm/min. As for the experimental part: as §1, §2
Data set [6] can be described thus: Simulated cough machine, expectoration of mucus simulant. The text has this: The simulated cough machine system comprises the following elements: A 10-L tank with compressed air, which serves as a pressure reservoir that generates airflow, simulating the lungs during a cough maneuver. The pressure generated prior to a normal adult cough is approximately 8 psi pressure. This pressure value was used to simulate the airflow pattern of a human cough for each trial.
The model “trachea” is a 28 cm long rigid acrylic tube with a circular 2.5 cm cross-section. It has an 8 cm removable portion to allow us to measure the weight of the sample of mucus simulant loaded before and immediately after each “cough” maneuver. A solenoid valve located between the pressure reservoir and the model trachea control the gas released from the tank.
An aliquot of sputum or mucus simulant is layered on the bottom of the model trachea and driven forward by the pressurized gas. […] Displacement of the MS sample loaded, expressed in millimeters, is measured from the initial placement to the farthest point with a visible bulk concentration of mucus. […]
Mucus simulants (MS) were exposed to airflow in a simulated cough machine (SCM). […] Mucociliary clearance of the MS was assessed on the frog palate (FIG. 5A), elasticity in the Filancemeter (FIG. 6A) and the aerosol pattern in a “bulls-eye” target (FIG. 6B). […]

The nature of data set [7]: Aerosol pattern on bulls-eye target, simulated cough machine. Particulars: increasing amounts added, 1.5 μL to 150 μL. As for the experimental part:
as §2

For `[Ca+2].[Cl-].[Cl-]` [CaCl2, calcium chloride], the “mucociliary transport time compared to Frog Ringers” value in data set [1] (5 μL topical, 30 s dispersion, 4 mm distance) is reported as “no significant effect; also recorded: did not alter the mucus transit time”. Further, the “effect on mucus on the surface of the palate (SE micrograph)” value in data set [2] was “causes “clumping” of the mucus”.

In the case of `[Na+].[Na+].[O-]B1OB2OB([O-])OB(O1)O2` [XL “B”, sodium tetraborate], the “elasticity relative to viscosity” value in data set [3] is recorded as “preferentially raises elasticity relative to viscosity”. The results for the TMV in data set [4] (High = 0.1M aerosol), in data set [4] (Low = 0.001M aerosol) and in data set [4] (Med = 0.01M aerosol) were 4.3 ± 1.53 mm/min, 3.88 ± 1.66 mm/min and 4.96 ± 1.99 mm/min, respectively. Besides, the “thread formation capability (a measure of elasticity) of the tracheal mucus” value in data set [4] is “increase”. Moreover, in data set [5], the “mucociliary transport rate of treated mucus simulants (means)” value was 16-20 mm/min. For the same molecule, the results for the “amount of MS expelled from the SCM” value in data set [6] (1.5 μL added) and in data set [6] (150 μL added) were 47% and 96%, respectively. The “particles in the aerosolization pattern” value in data set [7] was “reduced to almost disappear”.

As for HMW dextran [XL “D”], the figures for the TMV in data set [4] (High = 0.1M aerosol), in data set [4] (Low = 0.001M aerosol) and in data set [4] (Med = 0.01M aerosol) were 3.85 ± 2.2 mm/min, 4.43 ± 3.83 mm/min and 3.77 ± 1.65 mm/min, respectively. Further, in data set [4], the “thread formation capability (a measure of elasticity) of the tracheal mucus” value is recorded as “increase”.

As for poly-L-arginine [Mucomodulator A], the mucociliary clearance rate result in data set [1] (5 μl topical, 10^-8 to 10^-1 M, increasing applied concentration) was “significant increase”.

Regarding polymyxin B [reference compound], the mucociliary clearance result in data set [1] (5 μl topical, highest concentration) is reported as “sustained decrease”; in data set [1] (5 μl topical, intermediate concentration), “increase”.
